Assay results taken from US20180280326A1, “MEDICAMENT FOR PREVENTING OR INHIBITING ACUTE KIDNEY INJURY” (National Cerebral and Cardiovascular Center, priority 2015, published 2018).

Tests used:
[1] = test system: AT2 receptor deficient mice, CDDP induced acute kidney injury; assay: CDDP induced acute kidney injury-inhibiting effects on AT2 receptor deficient mice; assay type: in vivo; details: male AT2 receptor deficient mice; CDDP 15 mg/kg i.p.; oral 30 mg/kg per day from 3 days before; 72 hours after CDDP
Procedure: To 8- to 12-week-old male AT2 receptor deficient mice (n=3 or 5 to 7), 15 mg/kg of cisplatin (CDDP, disease group) or 30 mL/kg of phosphate buffered saline (PBS, normal group) was intraperitoneally administered.
A 0.2 mg/mL aqueous solution of Compound C in 0.5% carboxymethylcellulose (CMC) was prepared and orally administered so that Compound C was at a dose of 30 mg/kg per day from 3 days before the start of the experiment, and the mice were subjected to the experiment. To the control group, the same dose of 0.5% CMC aqueous solution was administered.
At 72 hours after CDDP administration, incision in the abdomen was performed under sevoflurane anesthesia, and the whole blood was collected from the abdominal great vein using a syringe. The blood was centrifuged, and the supernatant (serum) was collected. The serum was stored at −20 to −80° C. Immediately before dissection, spot urine was collected from each mouse.
Using the measurement kits, urinary albumin (Alb) and urinary creatinine (Cr) were measured for the calculation of the urinary Alb/Cr ratio, and also blood urea nitrogen (BUN) was measured. The results are shown in FIG. 3 (urinary Alb/Cr ratio) and FIG. 4 (BUN).

[2] = test system: human renal cells; details: LPS as an endotoxin acting on human renal cells; Non Patent Literature 6; cited from earlier work

| SMILES | inhibition of acute kidney injury caused by CDDP (urinary Alb/Cr ratio, FIG. 3; BUN, FIG. 4) [1] | level of IL-6 [2] | level of TNF-α [2] |
| --- | --- | --- | --- |
| CCN(CC)C(=O)[C@H](Cc1ccc(NC(=O)c2ccccc2)cc1)C(=O)NS(=O)(=O)c1ccc2ccccc2c1 [Compound C, (2S)-2-[4-(benzoylamino)benzyl]-N,N-diethyl-N′-(2-naphthylsulfonyl)malonamide] | not effective |  |  |
| CCCCOC(=O)NS(=O)(=O)c1sc(CC(C)C)cc1-c1ccc(Cn2ccnc2)cc1 [Example C21] |  | lowered | lowered |
